Source: PMC5218480 (PLoS ONE, 2017)

Tested on: MV-4-11 cells
Experiment: Gene expression microarray analysis (Affymetrix PrimeView) and GSEA
Format: cell-based, human
Set-up: RFU PODN (11730768_x_at) / Fold change /veh PODN (11730768_x_at) / RFU LINC00158 (11744669_a_at) / Fold change /veh LINC00158 (11744669_a_at) / RFU DUSP10 (11751237_a_at) / Fold change /veh DUSP10 (11751237_a_at) / RFU ID3 (11757404_x_at) / Fold change /veh ID3 (11757404_x_at) / RFU PLEKHG5 (11737974_s_at) / Fold change /veh PLEKHG5 (11737974_s_at) / RFU LRRC4B (11730491_at) / Fold change /veh LRRC4B (11730491_at) / RFU GIMAP4 (11747438_a_at) / Fold change /veh GIMAP4 (11747438_a_at) / RFU KRT8 (11758183_x_at) / Fold change /veh KRT8 (11758183_x_at) / RFU CNN1 (11734310_a_at) / Fold change /veh CNN1 (11734310_a_at) / RFU VPS37D (11726825_at) / Fold change /veh VPS37D (11726825_at) / RFU C10orf10 (11716522_x_at) / Fold change /veh C10orf10 (11716522_x_at) / RFU KIR2DL2 /// KIR2DL4 /// KIR2DL5A /// KIR2DL5B /// KIR2DS1 /// KIR2DS2 /// KIR2DS3 /// KIR2DS4 /// KIR3DL3 /// KIR3DL3 /// KIR3DS1 (11738374_at) / Fold change /veh KIR2DL2 /// KIR2DL4 /// KIR2DL5A /// KIR2DL5B /// KIR2DS1 /// KIR2DS2 /// KIR2DS3 /// KIR2DS4 /// KIR3DL3 /// KIR3DL3 /// KIR3DS1 (11738374_at) / RFU C1QL1 (11718748_at) / Fold change /veh C1QL1 (11718748_at) / RFU TMPRSS4 (11747572_a_at) / Fold change /veh TMPRSS4 (11747572_a_at) / RFU HAMP (11756126_x_at) / Fold change /veh HAMP (11756126_x_at) / RFU RNFT2 (11725882_a_at) / Fold change /veh RNFT2 (11725882_a_at) / RFU NR4A2 (11747474_a_at) / Fold change /veh NR4A2 (11747474_a_at) / RFU ABCC12 (11746883_a_at) / Fold change /veh ABCC12 (11746883_a_at) / RFU TMEM136 (11760407_x_at) / Fold change /veh TMEM136 (11760407_x_at) / RFU CLDN22 /// WWC2 (11732394_at) / Fold change /veh CLDN22 /// WWC2 (11732394_at) / RFU HLA-DPB1 (11760878_x_at) / Fold change /veh HLA-DPB1 (11760878_x_at) / RFU SPINT1 (11716480_a_at) / Fold change /veh SPINT1 (11716480_a_at) / RFU GAP43 (11754022_s_at) / Fold change /veh GAP43 (11754022_s_at) / RFU A4GNT (11735810_at) / Fold change /veh A4GNT (11735810_at) / RFU PRB3 (11715151_x_at) / Fold change /veh PRB3 (11715151_x_at) / RFU TUBB4B (11761932_at) / Fold change /veh TUBB4B (11761932_at) / RFU CAPN14 (11732068_a_at) / Fold change /veh CAPN14 (11732068_a_at) / RFU TMCC2 (11721928_a_at) / Fold change /veh TMCC2 (11721928_a_at) / RFU IRGQ (11745062_a_at) / Fold change /veh IRGQ (11745062_a_at) / RFU FAM174B (11720279_a_at) / Fold change /veh FAM174B (11720279_a_at) / RFU TMPRSS4 (11748680_a_at) / Fold change /veh TMPRSS4 (11748680_a_at) / RFU FAM212B (11763350_a_at) / Fold change /veh FAM212B (11763350_a_at) / RFU PLEKHG5 (11743358_a_at) / Fold change /veh PLEKHG5 (11743358_a_at) / RFU ZSCAN30 (11745921_a_at) / Fold change /veh ZSCAN30 (11745921_a_at) / RFU CMKLR1 (11741424_a_at) / Fold change /veh CMKLR1 (11741424_a_at) / RFU LOC101060620 /// MAPK8IP1 (11723275_at) / Fold change /veh LOC101060620 /// MAPK8IP1 (11723275_at) / RFU SPTSSB (11747773_x_at) / Fold change /veh SPTSSB (11747773_x_at) / RFU PRSS12 (11739890_at) / Fold change /veh PRSS12 (11739890_at) / RFU BIN1 (11741810_x_at) / Fold change /veh BIN1 (11741810_x_at) / RFU WNT11 (11732464_a_at) / Fold change /veh WNT11 (11732464_a_at) / RFU C10orf10 (11716521_a_at) / Fold change /veh C10orf10 (11716521_a_at) / RFU C5orf56 (11738089_at) / Fold change /veh C5orf56 (11738089_at) / RFU CYB561 (11721691_x_at) / Fold change /veh CYB561 (11721691_x_at) / RFU ANKRD19P (11752326_a_at) / Fold change /veh ANKRD19P (11752326_a_at) / RFU OR2T12 /// OR2T33 /// OR2T8 (11738714_s_at) / Fold change /veh OR2T12 /// OR2T33 /// OR2T8 (11738714_s_at) / RFU VCAN (11748164_a_at) / Fold change /veh VCAN (11748164_a_at) / RFU JSRP1 (11732532_at) / Fold change /veh JSRP1 (11732532_at) / RFU KRTAP10-11 (11738290_x_at) / Fold change /veh KRTAP10-11 (11738290_x_at) / RFU MYO3A (11730013_a_at) / Fold change /veh MYO3A (11730013_a_at) / RFU EBF3 (11725865_a_at) / Fold change /veh EBF3 (11725865_a_at) / RFU CAMK2N1 (11719241_x_at) / Fold change /veh CAMK2N1 (11719241_x_at) / RFU C5orf56 (11738088_a_at) / Fold change /veh C5orf56 (11738088_a_at) / RFU OLFML3 (11715873_a_at) / Fold change /veh OLFML3 (11715873_a_at) / RFU LOC100653217 /// NTM (11731650_a_at) / Fold change /veh LOC100653217 /// NTM (11731650_a_at) / RFU MAPK11 (11762145_a_at) / Fold change /veh MAPK11 (11762145_a_at) / RFU FIZ1 (11724087_x_at) / Fold change /veh FIZ1 (11724087_x_at) / RFU OASL (11726364_x_at) / Fold change /veh OASL (11726364_x_at) / RFU SOX15 (11748057_x_at) / Fold change /veh SOX15 (11748057_x_at) / RFU CD79A (11719716_a_at) / Fold change /veh CD79A (11719716_a_at) / RFU HIST1H1D (11736915_at) / Fold change /veh HIST1H1D (11736915_at) / RFU CASKIN2 (11723855_a_at) / Fold change /veh CASKIN2 (11723855_a_at) / RFU LOC730098 (11760151_x_at) / Fold change /veh LOC730098 (11760151_x_at) / RFU OR4N2 (11742367_at) / Fold change /veh OR4N2 (11742367_at) / RFU PRRT2 (11749266_a_at) / Fold change /veh PRRT2 (11749266_a_at) / RFU SNX32 (11753110_a_at) / Fold change /veh SNX32 (11753110_a_at) / RFU CDHR5 (11726645_a_at) / Fold change /veh CDHR5 (11726645_a_at) / RFU RCAN1 (11760418_a_at) / Fold change /veh RCAN1 (11760418_a_at) / RFU FAM167A (11723789_a_at) / Fold change /veh FAM167A (11723789_a_at) / RFU FAM26E (11764081_at) / Fold change /veh FAM26E (11764081_at) / RFU ISYNA1 (11749810_s_at) / Fold change /veh ISYNA1 (11749810_s_at) / RFU ACY1 (11761880_at) / Fold change /veh ACY1 (11761880_at) / RFU 11764098_at / Fold change /veh 11764098_at / RFU SAMD14 (11745864_x_at) / Fold change /veh SAMD14 (11745864_x_at) / RFU NPB (11741838_a_at) / Fold change /veh NPB (11741838_a_at) / RFU TMPRSS6 (11731388_a_at) / Fold change /veh TMPRSS6 (11731388_a_at) / RFU KRTAP10-2 (11738614_at) / Fold change /veh KRTAP10-2 (11738614_at) / RFU ARHGAP8 /// PRR5-ARHGAP8 (11727945_x_at) / Fold change /veh ARHGAP8 /// PRR5-ARHGAP8 (11727945_x_at) / RFU KRTAP5-7 /// NADSYN1 (11734609_at) / Fold change /veh KRTAP5-7 /// NADSYN1 (11734609_at) / RFU RASL12 (11751679_a_at) / Fold change /veh RASL12 (11751679_a_at) / RFU CDKN2B (11736163_a_at) / Fold change /veh CDKN2B (11736163_a_at) / RFU PRF1 (11729649_at) / Fold change /veh PRF1 (11729649_at) / RFU, ZNF638 /// ZNF638-IT1 / Fold change vs veh, ZNF638 /// ZNF638-IT1 / RFU, PANK3 / Fold change vs veh, PANK3 / RFU, SH3YL1 / Fold change vs veh, SH3YL1 / RFU, ZEB2 / Fold change vs veh, ZEB2 / RFU, NRIP1 / Fold change vs veh, NRIP1 / RFU, PTTG1IP / Fold change vs veh, PTTG1IP / RFU, CAPN2 / Fold change vs veh, CAPN2 / RFU, MED14 / Fold change vs veh, MED14 / RFU, SNORA58 / Fold change vs veh, SNORA58 / RFU, C1orf63 / Fold change vs veh, C1orf63 / RFU, LRRFIP1 / Fold change vs veh, LRRFIP1 / RFU, NDUFAF7 / Fold change vs veh, NDUFAF7 / RFU, SLC12A2 / Fold change vs veh, SLC12A2 / RFU, IBTK / Fold change vs veh, IBTK / RFU, ESF1 / Fold change vs veh, ESF1 / Fold change vs veh, TMEM50B / RFU, TAOK1 / Fold change vs veh, TAOK1 / RFU, ACBD3 / Fold change vs veh, ACBD3 / RFU, TMA16 / Fold change vs veh, TMA16 / RFU, RWDD3 / Fold change vs veh, RWDD3 / RFU, BCAT1 / Fold change vs veh, BCAT1 / RFU, EDEM3 / Fold change vs veh, EDEM3 / RFU, TMEM33 / Fold change vs veh, TMEM33 / RFU, WDR75 / Fold change vs veh, WDR75 / RFU, AHCTF1 / Fold change vs veh, AHCTF1 / RFU, TFRC / Fold change vs veh, TFRC / RFU, ZDHHC17 / Fold change vs veh, ZDHHC17 / RFU, NOM1 / Fold change vs veh, NOM1 / RFU, ARL8B / Fold change vs veh, ARL8B / RFU, ZBTB11 / Fold change vs veh, ZBTB11 / RFU, TAMM41 / Fold change vs veh, TAMM41 / RFU, KIAA1704 /// LOC100996395 / Fold change vs veh, KIAA1704 /// LOC100996395 / RFU, ING1 / Fold change vs veh, ING1 / RFU, TRMT61B / Fold change vs veh, TRMT61B / RFU, FUBP3 / Fold change vs veh, FUBP3 / RFU, TP53 / Fold change vs veh, TP53 / RFU, TNKS2 / Fold change vs veh, TNKS2 / RFU, ZFP14 / Fold change vs veh, ZFP14 / RFU, ACTR2 / Fold change vs veh, ACTR2 / RFU, PPP3R1 / Fold change vs veh, PPP3R1 / RFU, PIK3R1 / Fold change vs veh, PIK3R1 / RFU, HNRNPA1 / Fold change vs veh, HNRNPA1 / RFU, RNF170 / Fold change vs veh, RNF170 / RFU, ZNF28 / Fold change vs veh, ZNF28 / RFU, RNGTT / Fold change vs veh, RNGTT / RFU, OGT / Fold change vs veh, OGT / RFU, BRD1 / Fold change vs veh, BRD1 / RFU, MARS / Fold change vs veh, MARS / RFU, ZNF655 / Fold change vs veh, ZNF655 / RFU, FAHD1 / Fold change vs veh, FAHD1 / RFU, BDP1 / Fold change vs veh, BDP1 / RFU, LRRCC1 / Fold change vs veh, LRRCC1 / RFU, ARID1A / Fold change vs veh, ARID1A / RFU, ZNF146 / Fold change vs veh, ZNF146 / RFU, ZNF330 / Fold change vs veh, ZNF330 / RFU, GPN3 / Fold change vs veh, GPN3 / RFU, C9orf123 / Fold change vs veh, C9orf123 / RFU, N4BP2L2 / Fold change vs veh, N4BP2L2 / RFU, ARFIP1 / Fold change vs veh, ARFIP1 / RFU, FAM179B / Fold change vs veh, FAM179B / RFU, BCL10 / Fold change vs veh, BCL10 / RFU, UHRF1BP1L / Fold change vs veh, UHRF1BP1L / RFU, BET1 / Fold change vs veh, BET1 / RFU, CNOT2 / Fold change vs veh, CNOT2 / RFU, ZNF268 / Fold change vs veh, ZNF268 / Fold change vs veh, ZNF507 / RFU, DGCR2 / Fold change vs veh, DGCR2 / RFU, WDSUB1 / Fold change vs veh, WDSUB1 / Fold change vs veh, HSP90B1 /// MIR3652 / RFU, ADSS / Fold change vs veh, ADSS / RFU, GK / Fold change vs veh, GK / RFU, ZNF148 / Fold change vs veh, ZNF148 / RFU, TAF9 / Fold change vs veh, TAF9 / RFU, SLC1A5 / Fold change vs veh, SLC1A5 / RFU, SLMO2 / Fold change vs veh, SLMO2 / RFU, ABCC4 / Fold change vs veh, ABCC4 / RFU, LOC101060439 /// RAP1B / Fold change vs veh, LOC101060439 /// RAP1B / RFU, RFX7 / Fold change vs veh, RFX7 / RFU, GTPBP10 / Fold change vs veh, GTPBP10 / RFU, CNEP1R1 / Fold change vs veh, CNEP1R1 / RFU, BIVM-ERCC5 /// ERCC5 / Fold change vs veh, BIVM-ERCC5 /// ERCC5 / RFU, ILF3 / Fold change vs veh, ILF3 / RFU 11762660_at / Fold change /veh 11762660_at / RFU VCAN (11757783_s_at) / Fold change /veh VCAN (11757783_s_at) / RFU DDX43 (11728927_at) / Fold change /veh DDX43 (11728927_at) / RFU KRT8 (11758188_x_at) / Fold change /veh KRT8 (11758188_x_at) / RFU NKD1 (11759106_at) / Fold change /veh NKD1 (11759106_at) / RFU SRD5A1 (11742802_a_at) / Fold change /veh SRD5A1 (11742802_a_at) / RFU TPSAB1 /// TPSB2 (11721975_s_at) / Fold change /veh TPSAB1 /// TPSB2 (11721975_s_at) / RFU GSTM3 (11746129_a_at) / Fold change /veh GSTM3 (11746129_a_at) / RFU IL23R (11737362_x_at) / Fold change /veh IL23R (11737362_x_at) / RFU TMEM51 (11727254_a_at) / Fold change /veh TMEM51 (11727254_a_at) / RFU PIWIL2 (11732686_x_at) / Fold change /veh PIWIL2 (11732686_x_at) / RFU ORM1 (11744905_x_at) / Fold change /veh ORM1 (11744905_x_at) / RFU CCDC152 (11743942_at) / Fold change /veh CCDC152 (11743942_at) / RFU ECM1 (11717891_a_at) / Fold change /veh ECM1 (11717891_a_at) / RFU IL23R (11748794_a_at) / Fold change /veh IL23R (11748794_a_at) / RFU TNFAIP8L3 (11732012_x_at) / Fold change /veh TNFAIP8L3 (11732012_x_at) / RFU MBOAT4 (11741988_at) / Fold change /veh MBOAT4 (11741988_at) / RFU 11764193_at / Fold change /veh 11764193_at / RFU TMEM53 (11763286_at) / Fold change /veh TMEM53 (11763286_at) / RFU MAGEB2 (11727129_at) / Fold change /veh MAGEB2 (11727129_at) / RFU TMEM200A (11744735_a_at) / Fold change /veh TMEM200A (11744735_a_at) / RFU CCDC152 (11751479_a_at) / Fold change /veh CCDC152 (11751479_a_at) / RFU FAM211A (11726209_a_at) / Fold change /veh FAM211A (11726209_a_at) / RFU RGS16 (11746705_a_at) / Fold change /veh RGS16 (11746705_a_at) / RFU VCAN (11755009_s_at) / Fold change /veh VCAN (11755009_s_at) / RFU RHOB (11743442_s_at) / Fold change /veh RHOB (11743442_s_at) / RFU RGS16 (11720943_a_at) / Fold change /veh RGS16 (11720943_a_at) / RFU RGS16 (11720944_at) / Fold change /veh RGS16 (11720944_at) / RFU, VPS4B / Fold change vs veh, VPS4B / RFU, CREB1 / Fold change vs veh, CREB1 / RFU, DNAJC13 / Fold change vs veh, DNAJC13 / RFU, GNAQ / Fold change vs veh, GNAQ / RFU, CDK5R1 / Fold change vs veh, CDK5R1 / RFU, ZRANB3 / Fold change vs veh, ZRANB3 / RFU, CUL4A / Fold change vs veh, CUL4A / RFU, CCNY / Fold change vs veh, CCNY / RFU, UFL1 / Fold change vs veh, UFL1 / RFU, COG3 / Fold change vs veh, COG3 / RFU, DIAPH2 / Fold change vs veh, DIAPH2 / RFU, SKA2 / Fold change vs veh, SKA2 / RFU, AFF3 / Fold change vs veh, AFF3 / RFU, LMF1 / Fold change vs veh, LMF1 / RFU, IPO11 / Fold change vs veh, IPO11 / RFU, DFFB / Fold change vs veh, DFFB / RFU, FOXP1 / Fold change vs veh, FOXP1 / RFU, CARD8 / Fold change vs veh, CARD8 / RFU, STRN3 / Fold change vs veh, STRN3 / RFU, ADK / Fold change vs veh, ADK / RFU, RASSF2 / Fold change vs veh, RASSF2 / RFU, WIPF1 / Fold change vs veh, WIPF1 / RFU, LARP1B / Fold change vs veh, LARP1B / RFU, RASA1 / Fold change vs veh, RASA1 / RFU, RB1 / Fold change vs veh, RB1 / RFU, PPFIA1 / Fold change vs veh, PPFIA1 / RFU, MAT2A / Fold change vs veh, MAT2A / RFU, CCT5 / Fold change vs veh, CCT5 / RFU, WDR92 / Fold change vs veh, WDR92 / RFU, CUX1 / Fold change vs veh, CUX1 / RFU, TTC7A / Fold change vs veh, TTC7A / RFU, TMEM135 / Fold change vs veh, TMEM135 / RFU, DEPTOR / Fold change vs veh, DEPTOR / RFU, CPM / Fold change vs veh, CPM / RFU, DNAJB6 / Fold change vs veh, DNAJB6 / RFU, CACNA2D3 / Fold change vs veh, CACNA2D3 / RFU, DTX4 / Fold change vs veh, DTX4 / RFU, TFCP2 / Fold change vs veh, TFCP2 / RFU, GMCL1 /// GMCL1P1 / Fold change vs veh, GMCL1 /// GMCL1P1 / RFU, AEBP2 / Fold change vs veh, AEBP2 / RFU, SNHG1 /// SNORD22 /// SNORD25 /// SNORD26 /// SNORD27 /// SNORD28 /// SNORD29 /// SNORD31 / Fold change vs veh, SNHG1 /// SNORD22 /// SNORD25 /// SNORD26 /// SNORD27 /// SNORD28 /// SNORD29 /// SNORD31 / Fold change (Aza/veh), C12orf56 (ProbeSet 11735607_a_at) / Fold change (ACY-1035/veh), C12orf56 (ProbeSet 11735607_a_at) / Fold change (Aza/veh), FGFR1OP (ProbeSet 11751329_s_at) / Fold change (ACY-1035/veh), FGFR1OP (ProbeSet 11751329_s_at) / Fold change (Aza/veh), VPS36 (ProbeSet 11739960_a_at) / Fold change (ACY-1035/veh), VPS36 (ProbeSet 11739960_a_at) / RFU SYPL1 (11715823_x_at) / Fold change /veh SYPL1 (11715823_x_at) / RFU IGFBP7 (11715501_s_at) / Fold change /veh IGFBP7 (11715501_s_at) / RFU REEP3 (11722064_at) / Fold change /veh REEP3 (11722064_at) / RFU IGLL1 (11728026_x_at) / Fold change /veh IGLL1 (11728026_x_at): dose or concentration left out as unconfirmed
Conditions: ProbeSet 11741311_a_at; LIST B

With Nc1ncn([C@@H]2O[C@H](CO)[C@@H](O)[C@H]2O)c(=O)n1 [azacitidine] the “RFU, ZNF655” value was 32.83 RFU.
